Test system: cell population sets
Experiment: Directional displacement of cell population sets measured with the immune platform (FIG. 7)
Type: cell-based
Details: conditions unstimulated, LPS, TNF, effect of presence of the stimulus
Description: FIG. 7 is a graphical representation of the directional displacement of cell population sets as measured using an embodiment of the immune platform described herein. […]

Row | Substance | directional displacement of cell population sets
1 | tumor necrosis factor [TNF] | minimally affected
2 | lipopolysaccharide [LPS] | greatly affected

Source: US10872410B2, “Methods and apparatus for assessing immune system activity and therapeutic efficacy” (Animantis, LLC, priority 2016, dated 2020)
